Several values for one entry are separate records, joined by “and”; a condition that tells them apart may be missing. Equal entries are not always repeated.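 Protocol summary: plate cells (96-well), add compound at 5 concentrations, incubate 48 h, interpolate endpoints linearly. GI50: concentration for 50% inhibition of growth. TGI: concentration producing complete growth inhibition.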
Key:
Test in all cases: NCI tumour cell line growth inhibition, 48 h
NCI-H460 lung = system: NCI-H460 lung
HL-60(TB) leukemia = system: HL-60(TB) leukemia
SK-MEL-2 melanoma = system: SK-MEL-2 melanoma
SK-MEL-5 melanoma = system: SK-MEL-5 melanoma
NCI-H522 lung = system: NCI-H522 lung
K-562 leukemia = system: K-562 leukemia
RXF 393 renal = system: RXF 393 renal
A549 NSCLC = system: A549 NSCLC
NCI-H226 lung = system: NCI-H226 lung

SMILES | TGI (NCI-H460 lung) [µM] | TGI (HL-60(TB) leukemia) [µM] | TGI (SK-MEL-2 melanoma) [µM] | TGI (SK-MEL-5 melanoma) [µM] | TGI (NCI-H522 lung) [µM] | TGI (K-562 leukemia) [µM] | TGI (RXF 393 renal) [µM] | TGI (A549 NSCLC) [µM] | TGI (NCI-H226 lung) [µM] | GI50 (NCI-H460 lung) [µM] | GI50 (HL-60(TB) leukemia) [µM] | GI50 (SK-MEL-2 melanoma) [µM] | GI50 (SK-MEL-5 melanoma) [µM] | GI50 (NCI-H522 lung) [µM] | GI50 (K-562 leukemia) [µM] | GI50 (A549 NSCLC)
COC(=O)C1(O)c2ccccc2N=C2C1CCN2C (configuration not stated) | > 100 | > 100 | > 100 | > 100 | > 100 | > 100 | > 100 | > 100 | – | – | – | – | – | – | – | –
CC1(C)CC(N2CCN(C3CC(C)(C)NC(C)(C)C3)CC2)CC(C)(C)N1 | > 100 | > 100 | – | > 100 | > 100 | > 100 | > 100 | > 100 | – | – | – | – | – | – | – | –
COC(=O)C1=C(\O)C[C@@]2(C)CC[C@@H](C(=O)OC)C2C/C=C\1C(=O)OC (some centres not stated) | > 100 | > 100 | – | > 100 | > 100 | – | > 100 | > 100 | > 100 | – | – | – | – | – | – | –
CCCCCCCCCCCC(=O)OC(COC(N)=O)COc1ccc(Cl)cc1 (configuration not stated) | 47.4 | 33.3 | 74.4 | 32.8 | 31.5 | 35.1 | 43.9 | 36.8 | 46.1 | – | – | – | – | – | – | –
Cc1ccc(NC(=O)C(=O)CC(=O)c2ccccc2)cc1C | > 100 | – | – | > 100 | > 100 | – | > 100 | > 100 | > 100 | – | – | – | – | – | – | –
Cc1[nH]n(-c2cccc(Cl)c2)c(=O)c1/C=C1\C=c2ccccc2=CC1=O | > 100 | > 100 | 70.2 | > 100 | > 100 | > 100 | – | > 100 | – | > 100 | > 100 | 21.8 | > 100 | > 100 | 44.7 | > 100 µM
COC(=O)NC(=O)c1cn(C2CCCCC2)c(=O)[nH]c1=O | > 100 | > 100 | > 100 | > 100 | > 100 | > 100 | > 100 | > 100 | > 100 | – | – | – | – | – | – | –
N#CC1C(=O)NC(=O)C1=O (configuration not stated) | > 100 | – | > 100 | > 100 | > 100 | > 100 | > 100 | – | > 100 | – | – | – | – | – | – | –
O=C(/C=C/c1ccc(O)cc1)c1cc(Cl)ccc1O | > 100 | 45.8 | – | > 100 | 36.2 | 71.3 | 88.9 | > 100 | > 100 | – | – | – | – | – | – | –
O=C1c2ccccc2C(=O)c2c1ccc1c2N=C(c2ccc(Br)cc2)CC(c2cccc3ccccc23)N1 (configuration not stated) | > 100 | > 100 | > 100 | > 100 | > 100 | > 100 | > 100 | > 100 | > 100 | – | – | – | – | – | – | –
O=C(O)COc1ccc(C(=O)/C(SS/C(C(=O)c2ccc(OCC(=O)O)c(Cl)c2Cl)=C2\C=C(c3ccccc3Cl)SS2)=C2/C=C(c3ccccc3Cl)SS2)c(Cl)c1Cl | 52 | 7.01 | 50 | 49 | 11.3 | > 49 | – | > 100 | 47.3 | – | – | – | – | – | – | –
COc1cc(/C=C/c2cc(O)c(C/C=C(\C)CC/C=C(\C)CO)c(O)c2)cc2c1O[C@]1(C)CC[C@@H](O)C(C)(C)[C@H]1C2 | > 100 | 5.69 | > 100 | – | – | – | > 100 | > 62.5 | > 100 | – | 0.511 | > 100 | – | – | – | 3.96 µM and 9.59 µM
CCCCC(C(=O)CCC(=O)Nc1ccc(Cl)cc1)C(=O)C(C)C (configuration not stated) | > 100 | > 100 | > 100 | > 100 | > 100 | > 100 | > 100 | > 100 | > 100 | – | – | – | – | – | – | –
Cn1cnc([N+](=O)[O-])c1Sc1nc2ccc([N+](=O)[O-])cc2[nH]1 | > 100 | > 100 | – | 30.6 | – | 69.2 | 40.1 | > 100 | > 100 | – | – | – | – | – | – | –
NC(=O)c1ncn(Cc2ccccc2)c1CNC(N)=S | > 100 | > 100 | – | > 100 | – | > 100 | > 100 | > 100 | > 100 | – | – | – | – | – | – | –
O=C1CC[C@@H](NC(=O)Cc2ccccc2)C(=O)N1 | > 100 | – | > 100 | > 100 | > 100 | > 100 | – | > 100 | > 100 | – | – | – | – | – | – | –
ClCCCCOC1CCCCO1 (configuration not stated) | > 100 | > 100 | > 100 | > 100 | > 100 | – | > 100 | > 100 | > 100 | – | – | – | – | – | – | –
N#Cc1cn(-c2c3ccccc3nc3ccccc23)c(=O)[nH]c1=O | – | 30.6 | 24.9 | – | 18.3 | 23.3 | – | 24 | – | – | – | – | – | – | – | –
CC1CC(c2ccc(Cl)c(Cl)c2)=Nc2ccccc2S1 (configuration not stated) | > 100 | > 100 | – | > 100 | > 100 | > 100 | > 100 | > 100 | > 100 | – | – | – | – | – | – | –
Cc1ccc2nc3c(C)cc(=O)cc-3sc2c1 | 60.6 | 25.2 | 52.7 | 29 | 45.1 | 31.5 | – | 54.6 | > 100 | – | – | – | – | – | – | –
NCC1(N2CCOCC2)C2CCCC21CNc1ccccc1 (configuration not stated) | > 100 | > 100 | – | > 100 | > 100 | > 100 | > 100 | > 100 | – | – | – | – | – | – | – | –
